The text below walks through data of patent publication US20160150782A1, “USE OF SELECTED PYRIDONE CARBOXAMIDES OR SALTS THEREOF AS ACTIVE SUBSTANCES AGAINST ABIOTIC PLANT STRESS” (BAYER CROPSCIENCE AKTIENGESELLSCHAFT, priority 2013, published 2016).

Holding throughout (format): in vivo
For experiment [1], the system named is Zea mays (corn). Description: Cold stress test on sprayed greenhouse plants, visual damage scoring (Table 1). Conditions: efficacy = reduction in damage intensity, spray WP, 600 l/ha water. How it is done:
Seeds of monocotyledonous and dicotyledonous crop plants are sown in sandy loam in plastic or wood-fiber pots, covered with soil or sand and cultivated in a greenhouse under good growth conditions. The test plants are treated at the early leaf stage (BBCH10-BBCH13). To assure uniform water supply before commencement of stress, the potted plants are supplied with water by dam irrigation prior to substance application.
The inventive compounds, formulated in the form of wettable powders (WP), are sprayed onto the green parts of the plants as an aqueous suspension at an equivalent water application rate of 600 I/ha with addition of 0.2% wetting agent (e.g. agrotin). Substance application is followed immediately by stress treatment of the plants. For this purpose, the wood-fiber pots are transferred in plastic inserts in order to prevent them from subsequently drying out too quickly.
The duration of the respective stress phases is guided mainly by the condition of the stressed control plants. It is ended (by re-irrigating and transfer to a greenhouse with good growth conditions) as soon as irreversible damage is observed on the stressed control plants.
The end of the stress phase is followed by an approx. 4-14-day recovery phase, during which the plants are once again kept under good growth conditions in a greenhouse. The duration of the recovery phase is guided mainly by when the trial plants have attained a state which enables visual scoring of potential effects, and is therefore variable.
Once this juncture has been reached, the intensities of damage are scored visually in comparison to untreated, unstressed controls of the same age. The damage intensity is at first assessed in percent. These values are then used to calculate the efficacy of the test compounds by the following formula:
[formula] • E: Efficacy=reduction in damage intensity as a result of treatment with test substance • DIs: Damage intensity of the stressed control plants • DIt: Damage intensity of the plants treated with test compound […]

For experiment [2], the system named is Zea mays (corn). Description: Drought stress test on sprayed greenhouse plants, visual damage scoring (Table 2). Further details: key: reduction in damage intensity, damage assessed in %. Conditions: efficacy = reduction in damage intensity, spray WP, 600 l/ha water. How it is done: (§1) Seeds of monocotyledonous and dicotyledonous crop plants are sown in sandy loam in plastic or wood-fiber pots, covered with soil or sand and cultivated in a greenhouse under good growth conditions. The test plants are treated at the early leaf stage (BBCH10-BBCH13). To assure uniform water supply before commencement of stress, the potted plants are supplied with water by dam irrigation prior to substance application. The inventive compounds, formulated in the form of wettable powders (WP), are sprayed onto the green parts of the plants as an aqueous suspension at an equivalent water application rate of 600 I/ha with addition of 0.2% wetting agent (e.g. agrotin). Substance application is followed immediately by stress treatment of the plants. For this purpose, the wood-fiber pots are transferred in plastic inserts in order to prevent them from subsequently drying out too quickly. Drought stress is induced by gradual drying out under the following conditions: “Day”: 14 hours with illumination at 26-30° C. “Night”: 10 hours without illumination at 18-20° C. The duration of the respective stress phases is guided mainly by the condition of the stressed control plants. […] The end of the stress phase is followed by an approx. 4-14-day recovery phase, during which the plants are once again kept under good growth conditions in a greenhouse. The duration of the recovery phase is guided mainly by when the trial plants have attained a state which enables visual scoring of potential effects, and is therefore variable. […] The damage intensity is at first assessed in percent.

Another experiment deals with Triticum aestivum. Kind of experiment: Drought stress test on sprayed greenhouse plants, visual damage scoring (Table 4). The note with it: efficacy = reduction in damage intensity, dosage 250 g/ha, spray WP, 600 l/ha water. How it is done: as §1

A value given as a limit tells only on which side of the number the result lay.

On to `CC(C)(C)CNC(=O)c1cc(I)c(C(F)(F)F)[nH]c1=O` [compound 2223], for which the “E:E (ZEAMX)” value in the experiment with Zea mays (corn) [1] (dosage 25 g/ha) is above 5. Also, the “E (ZEAMX)” value in the experiment on Zea mays (corn) [2] (dosage 250 g/ha) was above 5.
In the case of `CC(C)C(C)NC(=O)c1cc(Br)c(C(F)C(F)(F)F)[nH]c1=O` (stereo not drawn) [compound 2128], the “E:E (ZEAMX)” value in the experiment on Zea mays (corn) [1] (dosage 250 g/ha) is given as above 5. Also, the “E (ZEAMX)” value in the experiment on Zea mays (corn) [2] (dosage 25 g/ha) was above 5.
As to `Cc1cc(C(=O)NCCO)c(=O)[nH]c1C(F)(F)C(F)(F)F` [compound 265], the “E:E (ZEAMX)” value in the experiment on Zea mays (corn) [1] (dosage 10 g/ha) is reported as above 5. Further, in the experiment on Triticum aestivum, the “E (TRZAS)” value is reported as above 5.
